Our source for the Ki values is patent US9000008B2, “Amides of acetic and propionic acids” (Bayer Intellectual Property GmbH, priority 2002, dated 2015).

Counter-ions that a name gives are not always drawn.

What is called Ki is the equilibrium dissociation constant of an inhibitor or competing ligand from its target. Read a high Ki as weaker binding.

Sequence of α7 nAChR (Q05941 23-502): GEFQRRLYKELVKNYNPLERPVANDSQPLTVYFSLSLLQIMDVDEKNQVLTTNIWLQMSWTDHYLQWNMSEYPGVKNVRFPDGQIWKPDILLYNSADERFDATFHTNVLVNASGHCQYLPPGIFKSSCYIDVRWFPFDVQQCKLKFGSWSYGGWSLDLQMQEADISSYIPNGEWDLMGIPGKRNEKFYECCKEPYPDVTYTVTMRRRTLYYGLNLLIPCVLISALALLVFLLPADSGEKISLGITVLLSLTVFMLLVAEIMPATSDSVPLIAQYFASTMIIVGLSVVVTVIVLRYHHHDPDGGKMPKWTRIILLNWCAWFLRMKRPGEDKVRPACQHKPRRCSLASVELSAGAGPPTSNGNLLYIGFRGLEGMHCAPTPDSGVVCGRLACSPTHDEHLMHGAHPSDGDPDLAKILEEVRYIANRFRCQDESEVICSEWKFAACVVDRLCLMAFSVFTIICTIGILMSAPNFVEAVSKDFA

The test deals with α7 nAChR (Rattus norvegicus (Rat), UniProt Q05941). The test is described as follows: [3H]-methyllycaconitine binding assay, rat brain membranes. To be noted: inhibition of [3H]-methyllycaconitine binding to rat brain membranes; Ki=IC50/(1+L/KD). The method, then:
1. Determination of the Affinity of Test Substances for α7 nAChR by Inhibition of [^3H]-Methyllycaconitine Binding to Rat Brain Membranes
The [^3H]-methyllycaconitine binding assay is a modification of the method described by Davies et al. (Neuropharmacol. 1999, 38, 679-690).
Rat brain tissue (hippocampus or whole brain) is homogenized in homogenization buffer (10% w/v). [0.32 M sucrose, 1 mM EDTA; 0.1 mM phenylmethylsulfonyl fluoride (PMSF), 0.01% (w/v) NaN3, pH 7.4, 4° C.] at 600 rpm in a glass homogenizer. The homogenate is centrifuged (1000×g, 4° C., 10 min) and the supernatant is removed. The pellet is resuspended (20% w/v) and the suspension is centrifuged (1000×g, 4° C., […]). The two supernatants are combined and centrifuged (15 000×g, 4° C., 30 min). The pellet obtained in this way is referred to as the P2 fraction.
The P2 pellet is washed twice with binding buffer (50 mM Tris-HCl, 1 mM MgCl2, 120 mM NaCl, 5 mM KCl, 2 mM CaCl2, pH 7.4), and centrifuged (15 000×g, 4° C., 30 min).
The P2 membranes are resuspended in binding buffer and incubated in a volume of 250 μl (amount of membrane protein 0.1-0.5 mg) in the presence of 1-5 nM [^3H]methyllycaconitine, 0.1% (w/v) BSA (bovine serum albumin) and various concentrations of the test substance at 21° C. for 2.5 h. The non-specific binding is determined by incubation in the presence of 1 μM α-bungarotoxin or 100 μM nicotine or 10 μM MLA (methyllycaconitine).
The incubation is stopped by adding 4 ml of PBS (20 mM Na2HPO4, 5 mM KH2PO4, 150 mM NaCl, pH 7.4, 4° C.) and filtering through type A/E glass fiber filters (Gelman Sciences) which have previously been placed in 0.3%. (v/v) polyethyleneimine (PEI) for 3 h. The filters are washed twice with 4 ml of PBS (4° C.), and the bound radioactivity is determined by scintillation measurement. All the assays are carried out in triplicate. The dissociation constant Ki of the test substance was determined from the IC50 of the compounds (concentration of the test substance at which 50% of the ligand bound to the receptor is displaced), the dissociation constant KD and the concentration L of [^3H]-methyllycaconitine using the equation Ki=IC50/(1+L/KD).
Compound `O=C(CC1CN2CCC1CC2)Nc1cc2cccc(Br)c2s1` (stereo not shown) [Example 1, 2-(1-Azabicyclo[2.2.2]oct-3-yl)-N-(7-bromo-1-benzothien-2-yl)acetamide hydrochloride] registered a Ki of 120 nM.

`O=C(CC1CN2CCC1CC2)Nc1ccc2cccnc2c1` (stereo not shown) [Example 3, 2-(1-Azabicyclo[2.2.2]oct-3-yl)-N-(7-quinolinyl)acetamide hydrochloride]: the Ki worked out at 280 nM.

For `O=C(CC1CN2CCC1CC2)Nc1ccc2ccccc2c1` (stereo not shown) [Example 4, 2-(1-Azabicyclo[2.2.2]oct-3-yl)-N-(2-naphthyl)acetamide hydrochloride], affinity was put at a Ki of 42 nM.

`O=C(CC1CN2CCC1CC2)Nc1ccc2cccc([N+](=O)[O-])c2c1` (stereo not shown) [Example 5, 2-(1-Azabicyclo[2.2.2]oct-3-yl)-N-(8-nitro-2-naphthyl)acetamide hydrochloride] had a Ki of 170 nM.
